Here are results for 2 sequences from patent US20230034660A1, “PEPTIDES THAT ENHANCE NMDA RECEPTOR FUNCTION AND USE THEREOF” (University of Pittsburgh - Of the Commonwealth System of …, priority 2019, published 2023).

The subject of test [1] is presynaptic release of glutamate. The test is described as follows: Paired pulse ratio and coefficient of variance of AMPAR responses (release probability). To be noted: peptide-treated slices; for paired pulse ratio (PPR): AMPAR EPSCs, 50 millisecond interval; for coefficient of variance (CV): AMPAR responses. It counts as cell-based, mice. As to the method:
For brain slice recordings, whole-cell recordings of NMDAR EPSCs in slice DCN cartwheel cells were obtained with micropipettes (3-6 MΩ) containing 128 mM Cs(CH3O3S), 4 mM MgCl2·6H2O, 4 mM Na2ATP, 10 mM HEPES, 0.3 mM Tris-GTP, 10 mM Tris-phosphocreatine, 1 mM CsEGTA, 1 mM, QX-314, 3 mM sodium ascorbate, pH=˜7.2, 300 mOsm. Cartwheel cells were identified by the presence of complex spikes (Zhang and Oertel, 1993; Golding and Oertel, 1997; Tzounopoulos et al., 2004) in cell-attached configuration before break-in or in response to current injections in current-clamp mode after break-in. NMDAR EPSCs were recorded in voltage clamp mode, at a holding potential of +40 mV, in the presence of DNQX (20 μM, AMPA and kainate receptor antagonist), SR95531. (20 μM, GABAAR antagonist), and strychnine (1 μM, GlyR antagonist), ZX1 (100 μM) was included in the pipette in experiments where noted. Whole-cell recordings of AMPAR EPSCs were obtained with micropipettes containing […], 4.5 mM MgCl2·6 H2O, 14 mM Tris-phosphocreatine, 9 mM HEPES, 0.1 mM EGTA, 4 mM Na2ATP, 0.3 mM Tris-GTP, 10 mM sucrose, pH=7.3, 295 mOsm. AMPA EPSCs were recorded in voltage clamp mode at a holding potential of −70 mV in the presence of SR9551. (20 μM, GABAAR antagonist) and strychnine (1 μM, GlyR antagonist). Both NMDAR and […] EPSCs were evoked using an Isoflex stimulator (A.M.P.I. 0.1 ms pulses) stimulating parallel fibers with voltage pulses through a theta glass electrode. Stimulus intensity was adjusted to a level that consistently evoked stable responses. For paired pulse experiments, inter-stimulus interval was 50 milliseconds. Once a stable response was established, ZX1 (100 μM) was added to the recording solution to measure the effect of zinc chelation on EPSCs. The series resistance was not compensated because the currents measured were relatively small, therefore there was minimum voltage clamp error. The series resistance was monitored during the recording by delivering −5 mV voltage steps for 50 milliseconds for each sweep. The peak current value (ΔIpeak) generated immediately after the step in the command potential was used to calculate series resistance (Rseries) using the following formula: Rseries=−5 mv/ΔIpeak. […] All values reported are animal-based values, in cases where multiple cells were recorded from the same animal preparation, the average of cells is presented (Lazic et al., 2018). […]
Next, it was evaluated whether a change in presynaptic release of glutamate could contribute to the observed actions of N2AZ on NMDAR-mediated synaptic currents. […] To measure PPR, two stimuli were given in rapid succession and the ratio of the second EPSC to the first was calculated. […]

Test [2] relates to AMPAR. The test is described as follows: AMPAR EPSCs in DCN cartwheel cells in brain slices, ZX1 potentiation. In kind it is cell-based, mice. The settings on record: slices treated with peptide 3 μM; ZX1 100 μM; −70 mV. As to the method: Male and female mice (postpartum days 18-28) were anesthetized with isoflurane and sacrificed. Brains were rapidly dissected and sectioned into 210 μm thick coronal slices containing dorsal cochlear nucleus (DCN) on a vibratome (Leica, VT1000S). Slices were incubated in ACSF containing 130 mM NaCl, 3 mM KCl, 2.4 mM CaCl2, 1.3 mM MgCl2, 20 mM NaHCO3, 3 mM HEPES, and 10 mM glucose, saturated with 95% O2/5% CO2 (vol/vol), pH ˜7.3, ˜300 mOsm at 35° C. for 1 hour before being moved to room temperature. During preparation, ACSF was treated with Chelex 100 resin to remove any contaminating zinc. After applying Chelex to the ACSF, high-purity calcium and magnesium salts were added (99.995% purity). All plastic and glassware were washed with 5% high-purity nitric acid.
For brain slice recordings, whole-cell recordings of NMDAR EPSCs in slice DCN cartwheel cells were obtained with micropipettes (3-6 MΩ) containing 128 mM Cs(CH3O3S), 4 mM MgCl2·6H2O, 4 mM Na2ATP, 10 mM HEPES, 0.3 mM Tris-GTP, 10 mM Tris-phosphocreatine, 1 mM CsEGTA, 1 mM, QX-314, 3 mM sodium ascorbate, pH=˜7.2, 300 mOsm. […] NMDAR EPSCs were recorded in voltage clamp mode, at a holding potential of +40 mV, in the presence of DNQX (20 μM, AMPA and kainate receptor antagonist), SR95531. […] AMPA EPSCs were recorded in voltage clamp mode at a holding potential of −70 mV in the presence of SR9551. […]

Take NDSYLRSSL [Peptide N2AZ]: in test [1], the “paired pulse ratio (PPR)” value was found to be 2.29±0.07 and the “coefficient of variance (CV)” value is given as 0.26±0.031. Further, in test [2], the “ZX1 potentiation of AMPAR EPSCs” value is 29.3±6.70%.

In the case of SNLSDSYDR [scN2AZ, reference compound], in test [1], the “paired pulse ratio (PPR)” value was found to be 2.18±0.26 and the “coefficient of variance (CV)” value was determined as 0.28±0.030. Also, the “ZX1 potentiation of AMPAR EPSCs” value in test [2] turned out to be 30.3±10.24%.
